How the values were obtained:
MPH (Ochr-MPH) [1] = biological target: MPH (Ochr-MPH) (Ochrobactrum sp. M231, UniProt B2Z3X1); conditions: CHBD-MPH, tag excised by Kex2; substrate not named, taken from enzyme name and text; assay conditions only by reference
From the text: (§1) steady-state kinetics, purified enzyme, standard MPH assay on MPH (Ochr-MPH)

MPH (Ochr-MPH) [2] = biological target: MPH (Ochr-MPH) (Ochrobactrum sp. M231, UniProt B2Z3X1, K277D/K284Q/K285R); conditions: CHBD-DQR; same
From the text: as §1

MPH (Ochr-MPH) [3] = biological target: MPH (Ochr-MPH) (Ochrobactrum sp. M231, UniProt B2Z3X1, K284Q/K285R); conditions: CHBD-QR; same
From the text: as §1

Sequence of MPH (Ochr-MPH) (Ochrobactrum sp. M231, UniProt B2Z3X1, K277D/K284Q/K285R) (B2Z3X1 entry or part of it K277D/K284Q/K285R): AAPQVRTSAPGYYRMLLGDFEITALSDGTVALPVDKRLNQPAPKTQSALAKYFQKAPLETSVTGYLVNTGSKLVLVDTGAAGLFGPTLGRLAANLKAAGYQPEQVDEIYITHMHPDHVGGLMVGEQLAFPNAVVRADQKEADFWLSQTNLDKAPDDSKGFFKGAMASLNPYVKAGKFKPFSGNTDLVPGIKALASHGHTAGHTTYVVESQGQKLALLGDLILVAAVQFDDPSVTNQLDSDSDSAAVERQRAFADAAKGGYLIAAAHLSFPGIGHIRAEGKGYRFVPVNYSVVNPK
Sequence of MPH (Ochr-MPH) (Ochrobactrum sp. M231, UniProt B2Z3X1) (B2Z3X1 entry or part of it): as the sequence (B2Z3X1 entry or part of it K277D/K284Q/K285R) above, with D242K, Q249K, R250K counted along it
Sequence of MPH (Ochr-MPH) (Ochrobactrum sp. M231, UniProt B2Z3X1, K284Q/K285R) (B2Z3X1 entry or part of it K284Q/K285R): as the sequence (B2Z3X1 entry or part of it K277D/K284Q/K285R) above, with D242K counted along it

COP(=S)(OC)Oc1ccc([N+](=O)[O-])cc1 [methyl parathion]
Km (MPH (Ochr-MPH) [1]): 86.9 ± 5.85 µM | Km (MPH (Ochr-MPH) [2]): 168 ± 7.57 µM | Km (MPH (Ochr-MPH) [3]): 119 ± 8.26 µM

Source: paper PMC4551668 (Microbial Cell Factories, 2015)
